Experimental data reported in patent US5439891A (priority 1993, dated 1995).

Legend:
[1] = type: in vivo; conditions: rats; in combination with piperine
[2] = in vivo
[3] = cited from earlier work

Structure (SMILES)	AUC compared to drugs without piperine in equivalent doses [1]	plasma levels [1]	bioavailability of the drugs in blood [2]	solubility in organic solvents ([3]; benzene, chlorform, ether, ethyl acetate, dichloromethane, alcohol, acetic acid)	solubility in pet. ether ([3]; pet. ether)	solubility in water ([3]; water)	bioavailability in combination with piperine [2]
NC(=O)c1cnccn1 [pyrazinamide]	very high AUC	significant increase	–	–	–	–	–
O=C(/C=C/C=C/c1ccc2c(c1)OCO2)N1CCCCC1 [Piperine, (E, E) 1-[5-(1,3-benzodioxyl-5-yl)-1-oxo-2,4-pentadenyl] piperidine]	–	–	increase in the bioavailability	soluble	insoluble	insoluble	–
CO[C@H]1/C=C/O[C@@]2(C)Oc3c(C)c(O)c4c(O)c(c(/C=N/N5CCN(C)CC5)c(O)c4c3C2=O)NC(=O)/C(C)=C\C=C\[C@H](C)[C@H](O)[C@@H](C)[C@@H](O)[C@@H](C)[C@H](OC(C)=O)[C@@H]1C [rifampicin]	very high AUC	significant increase	–	–	–	–	significantly increasing the bioavailability
NNC(=O)c1ccncc1 [isoniazid]	very high AUC	significant increase	–	–	–	–	–
